Reference: patent US9067888B2, “Inhibitors of protein kinases” (Ingenium Pharmaceuticals GmbH, priority 2010, dated 2015)

Columns and labels:
CDK9 = CDK9 (Homo sapiens (Human), UniProt P50750); test: In vitro kinase inhibition, KinaseProfiler service of Millipore, residual activity; type: biochemical; settings: for remaining activity at 0.01 µM: read-out: CDK9 10 nM (RA in %); for remaining activity at 0.1 µM / CDK9 100 nM (RA in %): residual activity at 100 nM compound; for remaining activity at 0.1 µM: read-out: CDK9 100 nM (RA in %)
Sequence of CDK9 (P50750 whole entry): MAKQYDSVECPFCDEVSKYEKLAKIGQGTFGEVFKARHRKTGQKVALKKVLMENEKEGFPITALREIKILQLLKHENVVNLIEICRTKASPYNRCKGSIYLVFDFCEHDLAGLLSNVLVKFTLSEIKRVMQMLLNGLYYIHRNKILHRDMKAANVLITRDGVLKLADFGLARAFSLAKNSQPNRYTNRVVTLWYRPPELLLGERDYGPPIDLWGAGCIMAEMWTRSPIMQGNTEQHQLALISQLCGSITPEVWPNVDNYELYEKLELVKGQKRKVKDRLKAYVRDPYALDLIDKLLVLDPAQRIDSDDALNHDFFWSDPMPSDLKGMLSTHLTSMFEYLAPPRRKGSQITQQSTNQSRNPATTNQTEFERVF
Sequence of CDK9 (O60563 whole entry partner): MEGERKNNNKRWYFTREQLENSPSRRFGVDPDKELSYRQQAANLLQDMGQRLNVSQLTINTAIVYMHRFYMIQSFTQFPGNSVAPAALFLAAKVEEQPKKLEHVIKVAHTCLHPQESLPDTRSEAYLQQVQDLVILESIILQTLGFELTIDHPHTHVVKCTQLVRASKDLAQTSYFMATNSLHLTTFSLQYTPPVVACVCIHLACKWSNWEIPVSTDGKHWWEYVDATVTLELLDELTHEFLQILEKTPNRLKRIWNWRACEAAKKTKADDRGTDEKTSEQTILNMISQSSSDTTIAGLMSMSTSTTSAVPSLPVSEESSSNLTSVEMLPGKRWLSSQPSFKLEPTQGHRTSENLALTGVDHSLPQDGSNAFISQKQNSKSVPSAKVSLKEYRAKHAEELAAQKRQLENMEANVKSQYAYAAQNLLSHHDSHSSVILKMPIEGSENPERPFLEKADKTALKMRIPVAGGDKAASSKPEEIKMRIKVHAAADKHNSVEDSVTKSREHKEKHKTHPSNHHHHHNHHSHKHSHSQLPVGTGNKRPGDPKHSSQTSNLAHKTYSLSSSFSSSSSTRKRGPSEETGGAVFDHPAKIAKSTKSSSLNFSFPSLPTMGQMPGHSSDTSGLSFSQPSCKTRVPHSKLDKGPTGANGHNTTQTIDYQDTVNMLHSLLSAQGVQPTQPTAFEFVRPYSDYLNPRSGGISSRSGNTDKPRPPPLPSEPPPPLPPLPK
Text: In vitro kinase assay analysis may be performed using standard techniques described in the art. These techniques are also used by commercial services providers in order to offer in vitro kinase activity assay services, e.g. the assays offered by Millipore Inc. (worldwide website www(dot)millipore.com), ProQinase GmbH (worldwide website www(dot)proqinase.de) and others.
In vitro kinase inhibition results shown in columns 7 to 9 in Table 1 were obtained by employing the KinaseProfiler™ service of Millipore and used to select compounds displaying specificity for CDK9. Specifically, it was intended to distinguish the CDK9-specific compounds from other compounds having significant inhibitory potency also with regard to other CDKs.

[1] = system: TNF-alpha inducible reporter gene; test: Inhibition of TNF-alpha-induced reporter gene expression (luciferase) in HeLa-derived cell line; type: cell-based, human; settings: remaining luciferase activity in presence of 3 μM of compound as ratio of DMSO-treated cells, TNF-alpha 50 ng/ml; for activity at 3 µM: Homo sapiens, 6 h, read-out: Efficacy (ratio to DMSO) TNF-alpha induced response; for Efficacy (ratio to DMSO) TNF-alpha induced response: 6 hours
Text: TNF-alpha responsive cell lines like the human HeLa cell line can be used to study cellular responses to TNF-alpha, e.g. transcriptional regulation of a transfected TNF-alpha responsive reporter gene, and effects of kinase inhibitors on this response.
In order to analyse compound effects on TNF-alpha mediated transcriptional response, a HeLa-derived cell line stably transfected with a TNF-alpha inducible reporter gene was used (Panomics Catalog No. RC0013). The cell line was obtained by co-transfection of a luciferase reporter gene (Panomics P/N LR0051) and pHyg into human cervical epithelial HeLa cells, followed by hygromycin selection. TNFα-induced luciferase activity was used to select clones from the hygromycin-resistant cells. The cell line was maintained and stimulated according to the manufacturer's instructions. Briefly, cells were seeded at 5×10^5/well in 1 ml of growth medium in a 12-well plate and incubated in a humidified incubator at 37° C. and 5% CO2 for 24 hours. Medium was replaced with 1 ml of serum free medium and compounds were added up to concentrations of […]. After 1 hour of incubation, TNF-alpha was added to achieve a final concentration of 50 ng/ml. The culture dish was further incubated in a humidified incubator at 37° C. and 5% CO2 for 6 hours, medium was removed and 100 μL of lysis buffer were added to each well and the assay for luciferase activity was performed according to assay manufacturer's (Promega P/N E1500) recommendations. For more information about this cell line, go to worldwide website www(dot)panomics.com.
Compound effects on TNF-alpha-induced reporter gene expression is shown in column 6 in Table 1 given below. Indicated is the remaining luciferase activity after incubation in presence of 3 μM of compound as a ratio of the activity of DMSO-treated cells without compound. Specifically, it was intended to distinguish cell permeable compounds from other compounds having significant inhibitory potency with regard to other CDKs, but fail to penetrate cells or are unstable under the conditions of the experiment.

[2] = residual activity at 10 nM compound

Row | remaining activity at 0.01 µM (CDK9; [2]) | remaining activity at 0.1 µM (CDK9) | CDK9 10 nM (RA in %) (CDK9; [2]) | CDK9 100 nM (RA in %) (CDK9) | SMILES | activity at 3 µM [1] | Efficacy (ratio to DMSO) TNF-alpha induced response [1]
1 | 95% | 39% | – | – | COc1cc(F)ccc1-c1ccnc(NC(=O)CC(C)c2ccc(N3CCN(C)CC3)cc2)c1 (stereo not drawn) [Example 29, N-(4-(4-Fluoro-2-methoxyphenyl)pyridin-2-yl)-3-(4-(4-methylpiperazin-1-yl)phenyl)butanamide] | 105% | –
2 | 25% | 7% | – | – | COc1ccc(CC(=O)Nc2cc(-c3ccc(F)cc3OC)ccn2)cn1 [Example 14, N-(4-(4-Fluoro-2-methoxyphenyl)pyridin-2-yl)-2-(6-methoxypyridin-3-yl)acetamide] | 4% | –
3 | 50% | 8% | – | – | COc1cc(F)ccc1-c1ccnc(NC(=O)[C@@H]2CC[C@H](NC(C)=O)C2)c1 [Example 34, (1R,3S)-3-Acetamido-N-(4-(4-fluoro-2-methoxyphenyl)pyridin-2-yl)cyclopentanecarboxamide] | 7% | –
4 | – | – | 65% | 7% | COc1cc(F)ccc1-c1ccnc(NC(=O)C(C)c2ccncc2)c1 (stereo not drawn) [Example 16, N-(4-(4-Fluoro-2-methoxyphenyl)pyridin-2-yl)-2-(pyridin-4-yl)propanamide] | – | 0.04
5 | 58% | 8% | – | – | COc1cc(F)ccc1-c1ccnc(NC(=O)Cc2ccnc(N3CCN(C)CC3)c2)c1 [Example 31, N-(4-(4-Fluoro-2-methoxyphenyl)pyridin-2-yl)-2-(2-(4-methylpiperazin-1-yl)pyridin-4-yl)acetamide] | 4% | –
6 | 65% | 4% | – | – | COc1cc(F)ccc1-c1ccnc(NC(=O)[C@H]2CC[C@@H](NCc3ccccc3)CC2)c1 [Example 38, cis-4-(Benzylamino)-N-(4-(4-fluoro-2-methoxyphenyl)pyridin-2-yl)cyclo-hexanecarboxamide] | 2% | –
7 | 36% | 6% | – | – | COc1ccc([C@H](C)C(=O)Nc2cc(-c3ccc(F)cc3OC)ccn2)cc1 [Example 11, (2S)—N-(4-(4-Fluoro-2-methoxyphenyl)pyridin-2-yl)-2-(4-methoxyphenyl)-propanamide] | 7% | –
8 | 34% | 4% | – | – | COc1cc(F)ccc1-c1ccnc(NC(=O)[C@H]2CC[C@@H](Nc3ccncc3)CC2)c1 [Example 32, cis-N-(4-(4-Fluoro-2-methoxyphenyl)pyridin-2-yl)-4-(pyridin-4-ylamino)-cyclohexanecarboxamide] | 4% | –
9 | 68% | 10% | – | – | COc1ccc(F)cc1-c1ccnc(NC(=O)[C@@H](C)c2ccccc2)c1 [Example 10, (2S)—N-(4-(5-Fluoro-2-methoxyphenyl)pyridin-2-yl)-2-phenylpropanamide] | 10% | –
10 | 84% | – | – | 64% | COc1cc(F)ccc1-c1ccnc(NC(=O)C(C)c2ccncc2)c1 (stereo not drawn) [Example 15, N-(4-(4-Fluoro-2-methoxyphenyl)pyridin-2-yl)-2-(pyridin-4-yl)propanamide] | – | 0.83
11 | 46% | 5% | – | – | COc1cc(F)ccc1-c1ccnc(NC(=O)C2CNC(=O)C2)c1 (stereo not drawn) [Example 5, N-(4-(4-Fluoro-2-methoxyphenyl)pyridin-2-yl)-5-oxopyrrolidine-3-carboxamide] | 4% | –
12 | 29% | 4% | – | – | COc1cc(F)ccc1-c1ccnc(NC(=O)[C@H]2CC[C@@H](Nc3ccccn3)CC2)c1 [Example 30, N-(4-(4-Fluoro-2-methoxyphenyl)pyridin-2-yl)-4-(pyridin-2-ylamino)-cis-cyclohexanecarboxamide] | 3% | –
13 | 76% | 16% | – | – | COc1cc(F)ccc1-c1ccnc(NC(=O)Cc2cccs2)c1 [Example 9, N-(4-(4-Fluoro-2-methoxyphenyl)pyridin-2-yl)-2-(thiophen-2-yl)acetamide] | 4% | –
14 | 20% | 2% | – | – | COc1cc(F)ccc1-c1ccnc(NC(=O)[C@@H]2CC[C@H](NCc3ccccc3)C2)c1 [Example 37, (1R,3S)-3-(Benzylamino)-N-(4-(4-fluoro-2-methoxyphenyl)pyridin-2-yl)cyclopentanecarboxamide] | 2% | –
15 | 93% | 7% | – | – | COc1cc(F)ccc1-c1ccnc(NC(=O)Cc2ccncc2)c1 [Example 8, N-(4-(4-Fluoro-2-methoxyphenyl)pyridin-2-yl)-2-(pyridin-4-yl)acetamide] | 4% | –
